From patent US20250262222A1, “HETEROCYCLIC COMPOUNDS, COMPOSITIONS THEREOF, AND METHODS OF TREATMENT THEREWITH” (BeiGene Switzerland GmbH, priority 2022, published 2025)

Test system: pERK1/2(THR202/TYR204) level in SW620 cell line
Assay: KRAS G12V pERK assay
Type: cell-based
Details: Homo sapiens, SW-620; SW620 cells, 2 hrs compound treatment, HTRF
Method: (§1) SW620 cell line was used in this study. Cells were maintained in RPMI 1640 supplemented with 10% fetal bovine serum (Thermo Fisher), 50 units/mL penicillin and streptomycin (Thermo Fisher) and kept at 37° C. in a humidified atmosphere of 5% CO2 in air. Cells were reinstated from frozen stocks that were laid down within 30 passages from the original cells purchased. 40000 cells per well were seeded into a 96-well plate and incubated overnight. Cells were treated with a 10-point dilution series. The final compound concentration is from 0 to 10 μM. After 2 hrs compound treatment, cells were lysed, and the pERK1/2(THR202/TYR204) level in the cell lysates was detected by HTRF kit (Cisbio). In brief, a total of 16 μL of cell lysate from each well of a 96-well plate was transferred to a 384-well white assay plate. Lysate from each well was incubated with 2 μL of Eu3+-cryptate (donor) labeled anti-phospho-ERK1/2 and 2 μL of D2 (acceptor) labeled anti-phospho-ERK1/2 antibodies (Cisbio) overnight in dark at room temperature. When donor and acceptor are in close proximity, excitation of the donor with laser triggers a Fluorescence Resonance Energy Transfer (FRET) towards the acceptor, which in turn fluoresces at 655 nm wavelength. FRET signals were measured using a PHERAstar FSX reader (BMG Labtech). IC50 determination was performed by fitting the curve of percent inhibition versus the log of the inhibitor concentration using Dotmatics.

Structure (SMILES)	IC50
C#Cc1c(F)ccc2cc(O)cc(-c3cc4c5c(nc(OC[C@@]67CCCN6C[C@H](F)C7)nc5c3F)N3CCOC[C@H]3CO4)c12 [Example 2, 5-ethynyl-6-fluoro-4-((S)-4-fluoro-2-(((2R,7aS)-2-fluorotetrahydro-1H-pyrrolizin-7a(5H)-yl)methoxy)-8a,9,11,12-tetrahydro-8H-[1,4]oxazino[3′,4′:3,4][1,4]oxazepino[5,6,7-de]quinazolin-5-yl)naphthalen-2-ol]	178 nM
C#Cc1c(F)ccc2cc(O)cc(-c3nc4c5c(nc(OC[C@@]67CCCN6C[C@H](F)C7)nc5c3F)N3CCOC[C@H]3CO4)c12 [Example 4, 5-ethynyl-6-fluoro-4-((S)-1-fluoro-11-(((2R,7aS)-2-fluorotetrahydro-1H-pyrrolizin-7a(5H)-yl)methoxy)-5a,6,8,9-tetrahydro-5H-4,7-dioxa-3,9a,10,12-tetraazabenzo[4,5]cyclohepta[1,2,3-de]naphthalen-2-yl)naphthalen-2-ol]	6.7 nM
C#Cc1c(F)ccc2cc(O)cc(-c3nc4c5c(nc(OC[C@@H]6C[C@@H](F)CN6C)nc5c3F)N3CCOC[C@H]3CO4)c12 [Example 7, 5-ethynyl-6-fluoro-4-((S)-1-fluoro-11-(((2S,4R)-4-fluoro-1-methylpyrrolidin-2-yl)methoxy)-5a,6,8,9-tetrahydro-5H-4,7-dioxa-3,9a,10,12-tetraazabenzo[4,5]cyclohepta[1,2,3-de]naphthalen-2-yl)naphthalen-2-ol]	72 nM
C#Cc1c(F)ccc2cc(O)cc(-c3nc4c5c(nc(OCC6(CN7CCOCC7)CC6)nc5c3F)N3CCOC[C@H]3CO4)c12 [Example 8, (S)-5-ethynyl-6-fluoro-4-(1-fluoro-11-((1-(morpholinomethyl)cyclopropyl)methoxy)-5a,6,8,9-tetrahydro-5H-4,7-dioxa-3,9a,10,12-tetraazabenzo[4,5]cyclohepta[1,2,3-de]naphthalen-2-yl)naphthalen-2-ol]	43 nM
N#Cc1c(N)sc2c(F)ccc(-c3c(Cl)c4c5c(nc(OC[C@@]67CCCN6C[C@H](F)C7)nc5c3F)N3C5CCC3(COC5)CO4)c12 (stereo partly drawn) [Example 15, 2-amino-4-(11-chloro-9-fluoro-7-(((2R,7aS)-2-fluorotetrahydro-1H-pyrrolizin-7a(5H)-yl)methoxy)-3,4-dihydro-1H,13H-4,13a-ethano[1,4]oxazino[3′,4′:3,4][1,4]oxazepino[5,6,7-de]quinazolin-10-yl)-7-fluorobenzo[b]thiophene-3-carbonitrile]	83 nM
N#Cc1c(N)sc2c(F)ccc(-c3c(Cl)c4c5c(nc(OC[C@@]67CCCN6C[C@H](F)C7)nc5c3F)N3CCOC[C@@H]3CCO4)c12 [Example 18]	30 nM
C#Cc1c(F)ccc2cc(O)cc(-c3nc4c5c(nc(OC[C@@]67CCCN6C[C@H](F)C7)nc5c3F)N3CCCOC[C@H]3CO4)c12 [Example 20, 5-ethynyl-6-fluoro-4-((S)-1-fluoro-12-(((2R,7aS)-2-fluorotetrahydro-1H-pyrrolizin-7a(5H)-yl)methoxy)-5a,6,9,10-tetrahydro-5H,8H-4,7-dioxa-3,10a,11,13-tetraazanaphtho[1,8-ab]heptalen-2-yl)naphthalen-2-ol]	1.3 nM

Second part, the molecule after the results:

IC50	Structure (SMILES)
133 nM	Nc1cc(Cl)c(C(F)(F)F)c(-c2nc3c4c(nc(OC[C@@]56CCCN5C[C@H](F)C6)nc4c2F)N2CCOC[C@H]2CO3)c1 [Example 3, 3-chloro-5-((S)-1-fluoro-11-(((2R,7aS)-2-fluorotetrahydro-1H-pyrrolizin-7a(5H)-yl)methoxy)-5a,6,8,9-tetrahydro-5H-4,7-dioxa-3,9a,10,12-tetraazabenzo[4,5]cyclohepta[1,2,3-de]naphthalen-2-yl)-4-(trifluoromethyl)aniline]
22 nM	CCc1c(F)ccc2cc(O)cc(-c3nc4c5c(nc(OC[C@@]67CCCN6C[C@H](F)C7)nc5c3F)N3CCOC[C@H]3CO4)c12 [Example 5, 5-ethyl-6-fluoro-4-((S)-1-fluoro-11-(((2R,7aS)-2-fluorotetrahydro-1H-pyrrolizin-7a(5H)-yl)methoxy)-5a,6,8,9-tetrahydro-5H-4,7-dioxa-3,9a,10,12-tetraazabenzo[4,5]cyclohepta[1,2,3-de]naphthalen-2-yl)naphthalen-2-ol]
118 nM	Oc1cc(Cl)c(C2CC2)c(-c2nc3c4c(nc(OC[C@@]56CCCN5C[C@H](F)C6)nc4c2F)N2CCOC[C@H]2CO3)c1 [Example 6, 3-chloro-4-cyclopropyl-5-((S)-1-fluoro-11-(((2R,7aS)-2-fluorotetrahydro-1H-pyrrolizin-7a(5H)-yl)methoxy)-5a,6,8,9-tetrahydro-5H-4,7-dioxa-3,9a,10,12-tetraazabenzo[4,5]cyclohepta[1,2,3-de]naphthalen-2-yl)phenol]
24 nM	Nc1cc(Cl)c(C(F)(F)F)c(-c2nc3c4c(nc(OC[C@@]56CCCN5C[C@H](F)C6)nc4c2F)N2CCOC[C@@H]2CCO3)c1 [Example 16, 3-chloro-5-((S)-1-fluoro-12-(((2R,7aS)-2-fluorotetrahydro-1H-pyrrolizin-7a(5H)-yl)methoxy)-5,6,6a,7,9,10-hexahydro-4,8-dioxa-3,10a,11,13-tetraazabenzo[4,5]cycloocta[1,2,3-de]naphthalen-2-yl)-4-(trifluoromethyl)aniline]
74 nM	Nc1cc(Cl)c(C(F)(F)F)c(-c2nc3c4c(nc(OC[C@@]56CCCN5C[C@H](F)C6)nc4c2F)N2CCOCCC2CO3)c1 (stereo partly drawn) [Example 21, 3-chloro-5-(1-fluoro-12-(((2R,7aS)-2-fluorotetrahydro-1H-pyrrolizin-7a(5H)-yl)methoxy)-5,5a,6,7,9,10-hexahydro-4,8-dioxa-3,10a,11,13-tetraazanaphtho[1,8-ab]heptalen-2-yl)-4-(trifluoromethyl)aniline]
13 nM	C#Cc1c(F)ccc2cc(O)cc(-c3nc4c5c(nc(OC[C@@]67CCCN6C[C@H](F)C7)nc5c3F)N3CCOCCC3CO4)c12 (stereo partly drawn) [Example 22, 5-ethynyl-6-fluoro-4-(1-fluoro-12-(((2R,7aS)-2-fluorotetrahydro-1H-pyrrolizin-7a(5H)-yl)methoxy)-5,5a,6,7,9,10-hexahydro-4,8-dioxa-3,10a,11,13-tetraazanaphtho[1,8-ab]heptalen-2-yl)naphthalen-2-ol]

Test system: ERK1/2 phosphorylation in SW1990 tumors
Assay: SW1990 PD studies
Type: in vivo, Female NCG mice
Details: oral administration
Method: Female NCG mice were subcutaneously implanted with 5×10^6 SW1990 cells per 200 μL PBS/matrigel in the right flank. After inoculation, when tumors reached a mean volume of approximately 350-450 mm^3 in size, mice were randomized into treatment groups. Randomized mice would receive a single dose of vehicle consisting of 0.5% MC or test compounds at various dose (e.g. 30, 50, or 100 mg/kg) by oral administration. Plasma was collected at 0.5, 2, 4, and 7 hours, and tumor was collected at 7 hours after dosing to determine exposure levels. Tumor fragments were snap frozen in homogenization tubes with liquid nitrogen and homogenized with T-PER Tissue Protein Extraction Buffer with protease and phosphatase inhibitors added fresh before use. Tumor lysates were then analyzed for ERK1/2 phosphorylation.

Structure (SMILES)	oral pharmacodynamic effects
Cc1cc(N)cc(-c2nc3c4c(nc(OCC5(C(F)F)COC5)nc4c2F)N2C[C@H]4CC[C@H](N4)[C@H]2CCO3)c1C(F)(F)F [Example 26, 3-((6aR,7S,10R)-13-((3-(difluoromethyl)oxetan-3-yl)methoxy)-1-fluoro-5,6,6a,7,8,9,10,11-octahydro-4-oxa-3,11a,12,14,15-pentaaza-7,10-methanocyclohepta[4,5]cycloocta[1,2,3-de]naphthalen-2-yl)-5-methyl-4-(trifluoromethyl)aniline]	enhanced oral pharmacodynamic effects
Cc1cc(N)cc(-c2nc3c4c(nc(OCC56COC(C5)C6)nc4c2F)N2C[C@H]4CC[C@H](N4)[C@H]2CCO3)c1C(F)(F)F [Example 27, 3-((6aR,7S,10R)-13-((2-oxabicyclo[2.1.1]hexan-4-yl)methoxy)-1-fluoro-5,6,6a,7,8,9,10,11-octahydro-4-oxa-3,11a,12,14,15-pentaaza-7,10-methanocyclohepta[4,5]cyclo-octa[1,2,3-de]naphthalen-2-yl)-5-methyl-4-(trifluoromethyl)aniline]	enhanced oral pharmacodynamic effects

Test system: pERK1/2(THR202/TYR204) level in AsPC-1 cell line
Assay: KRAS G12D pERK assay
Type: cell-based
Details: Homo sapiens, ASPC1, 2 h, AsPC-1 cells, 2 h compound treatment, HTRF
Method: as §1, with “AsPC-1” for “SW620”, “RPMI-1640” for “RPMI 1640”, “30000” for “40000”, “h” for “hrs”

Structure (SMILES)	IC50
C#Cc1c(F)ccc2cc(O)cc(-c3nc4c5c(nc(OC[C@@]67CCCN6C[C@H](F)C7)nc5c3F)N3CCOC[C@H]3CO4)c12 [Example 4, 5-ethynyl-6-fluoro-4-((S)-1-fluoro-11-(((2R,7aS)-2-fluorotetrahydro-1H-pyrrolizin-7a(5H)-yl)methoxy)-5a,6,8,9-tetrahydro-5H-4,7-dioxa-3,9a,10,12-tetraazabenzo[4,5]cyclohepta[1,2,3-de]naphthalen-2-yl)naphthalen-2-ol]	76 nM
Cc1cc(N)cc(-c2nc3c4c(nc(OCC5(C(F)F)COC5)nc4c2F)N2C[C@H]4CC[C@H](N4)[C@H]2CCO3)c1C(F)(F)F [Example 26, 3-((6aR,7S,10R)-13-((3-(difluoromethyl)oxetan-3-yl)methoxy)-1-fluoro-5,6,6a,7,8,9,10,11-octahydro-4-oxa-3,11a,12,14,15-pentaaza-7,10-methanocyclohepta[4,5]cycloocta[1,2,3-de]naphthalen-2-yl)-5-methyl-4-(trifluoromethyl)aniline]	142 nM
Cc1cc(N)cc(-c2nc3c4c(nc(OCC56COC(C5)C6)nc4c2F)N2C[C@H]4CC[C@H](N4)[C@H]2CCO3)c1C(F)(F)F [Example 27, 3-((6aR,7S,10R)-13-((2-oxabicyclo[2.1.1]hexan-4-yl)methoxy)-1-fluoro-5,6,6a,7,8,9,10,11-octahydro-4-oxa-3,11a,12,14,15-pentaaza-7,10-methanocyclohepta[4,5]cyclo-octa[1,2,3-de]naphthalen-2-yl)-5-methyl-4-(trifluoromethyl)aniline]	203 nM
